This assay concerns the target T1, SARS-CoV-2 3CLpro (3CL protease, main protease) (Severe acute respiratory syndrome coronavirus 2, UniProt P0DTD1).
T1 construct: gene rep
The experiment in a line: biochemical.

`CC1=C(/C=C/C(C)=C/C=C/C(C)=C/C(=O)O)C(C)(C)CCC1` [all-trans retinoic acid] yielded an IC50 of 24.7 ± 1.65 µM.

The term IC50 denotes the concentration at which inhibition is half-maximal. A lower IC50 goes with inhibition by little substance.

The values above are taken from paper PMC8402917 (Viruses, 2021).
